# Experimental data as given in patent US20180327807A1, “ASSAY FOR DETERMINING ANTIBIOTICS IN WASTE” (DSM Sinochem Pharmaceuticals Netherlands B.V., priority 2015, published 2018).
# Tested on: microorganism in the agar layer
# Assay: Delvotest SP NT microbial growth inhibition assay, colour of the agar indicator, with or without added milk
# Assay type: cell-based
# Conditions: 2 ppb test solution, with added milk or added water, 60 to 210 min
# Protocol: From all samples solutions 100 μl is brought in the Delvotest SP NT Ampoule with an Eppendorf pipet of 100 μl. With the point of the pipet the tube cover top of the ampoule will be penetrated and the 100 μl is added to the ampoule. Put the ampoules for 2.5 h in a water bath of 65° C. Seal the ampoule with tape. After 2.5 h the ampoules are removed from the water bath. Check if the blanks are yellow, if not prolong the time in the water bath with 30 min. Yellow is negative and purple is positive. Positive means there is antimicrobial activity present in the sample which is higher than 2 ppb (calculated as penicillin G K). Two samples, a blank (water) and 2 ppb penicillin G K test solution were analysed using commercially available (DSM Food Specialties B.V., Delft, The Netherlands) Delvotest SP NT analogous to the supplier's manual. Two ampoules were filled with blank sample. To one milk (regular low-fat milk from a Dutch supermarket was used in the present example) was added according to the instruction as outlined in Example 1 and to the other the same amount of water was added. […] The ampoules filled with sample were incubated at 64° C.+/−2° C.) and the colour of the agar in the ampoules was visually recorded at several points in time. […]
smiles,measurement,value
"CC1(C)S[C@@H]2[C@H](NC(=O)Cc3ccccc3)C(=O)N2[C@H]1C(=O)[O-].[K+] [Penicillin G K test solution, penicillin G K]",colour change of the indicator (inhibiting effect on growth of the microorganism),do not show any colour change
